According to paper PMC10299089, “Heterologous expression of genes from a cyanobacterial endosymbiont highlights substrate exchanges with its diatom host” (PNAS Nexus, 2023):

T1: RintHH_11820 (NatB), SBP of N-I transporter (Richelia intracellularis, UniProt M1WZ73)
T1 construct: mature protein, signal peptide removed, N-terminal His tag, E. coli, nickel column
T1 sequence (M1WZ73 24-438): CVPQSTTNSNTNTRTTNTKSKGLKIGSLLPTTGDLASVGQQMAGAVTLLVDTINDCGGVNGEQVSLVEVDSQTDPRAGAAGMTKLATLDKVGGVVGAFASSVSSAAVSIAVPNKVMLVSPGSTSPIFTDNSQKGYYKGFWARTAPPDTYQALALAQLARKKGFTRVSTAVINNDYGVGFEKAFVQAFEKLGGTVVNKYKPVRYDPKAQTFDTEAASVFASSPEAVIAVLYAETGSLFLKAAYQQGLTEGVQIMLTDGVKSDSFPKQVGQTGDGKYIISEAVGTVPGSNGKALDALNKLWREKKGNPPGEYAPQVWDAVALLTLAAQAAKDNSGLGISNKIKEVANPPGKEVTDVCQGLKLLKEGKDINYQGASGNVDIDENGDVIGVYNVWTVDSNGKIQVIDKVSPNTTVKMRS

T2: RintHH_12770 (NatF), SBP of N-II transporter (Richelia intracellularis, UniProt M1WZB0)
T2 construct: mature protein, signal peptide removed, N-terminal His tag, E. coli, nickel column
T2 sequence (M1WZB0 22-348 limits assumed): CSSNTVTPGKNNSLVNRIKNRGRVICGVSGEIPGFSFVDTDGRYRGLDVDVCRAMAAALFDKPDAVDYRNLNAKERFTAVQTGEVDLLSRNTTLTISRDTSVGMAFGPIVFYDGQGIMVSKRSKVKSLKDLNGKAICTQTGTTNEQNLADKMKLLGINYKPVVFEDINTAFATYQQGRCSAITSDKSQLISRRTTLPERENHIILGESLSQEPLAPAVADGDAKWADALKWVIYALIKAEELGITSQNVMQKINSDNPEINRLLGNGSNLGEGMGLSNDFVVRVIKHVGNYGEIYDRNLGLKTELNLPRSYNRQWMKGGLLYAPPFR

T3: RintHH_17430 (GlsR), periplasmic SBP (Richelia intracellularis, UniProt M1X141)
T3 construct: mature protein, signal peptidase II signal peptide removed, N-terminal Cys fused to Strep-tag II; pET28b(+), E. coli, StrepTrap
T3 sequence (M1X141 41-442): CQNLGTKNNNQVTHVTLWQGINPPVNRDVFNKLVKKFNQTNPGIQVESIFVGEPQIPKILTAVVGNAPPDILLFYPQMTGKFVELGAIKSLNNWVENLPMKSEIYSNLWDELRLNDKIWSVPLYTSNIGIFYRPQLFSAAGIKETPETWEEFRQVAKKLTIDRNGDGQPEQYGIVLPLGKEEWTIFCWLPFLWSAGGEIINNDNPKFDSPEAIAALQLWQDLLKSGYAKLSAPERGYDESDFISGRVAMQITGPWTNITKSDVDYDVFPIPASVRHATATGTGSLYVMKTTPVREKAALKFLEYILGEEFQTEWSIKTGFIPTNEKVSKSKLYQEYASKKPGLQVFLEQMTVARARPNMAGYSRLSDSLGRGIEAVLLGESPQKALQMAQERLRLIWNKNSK

B1: RintHH_3860 (InvB), neutral invertase (Richelia intracellularis HH01) (protein)
chain: MQPHKVILKDVEKDAWDTLEKTIIYYQGNPIGTVAALDSTANTLNYDQCFVRDFVVSALLFLIKGRTEIVRNFLKQTLKLQPKKKQLGTYKPGRGLMPASFKVTFNNGQEELEADFGENAIARVTPVDSSLWWIVLLRAYVVATKDYSLAYQDDFQQGIRLILDLCLATRFDMYPTLLVPDGACMIDRRLGIHGHPLEIQSLYYAALRAARELLICQGNEELVFAIDNRLPVLAAHIRKHYWIDLHRLNDIYRYRGEEYGKDAVNQFNIYVDSIPYSELDRWLPKGGGYLAGNVGPSQMDTRFFTLGNLMAVIIDLTTQEQSQAIMTLIEQRWDDLVGDMPMKITFPALENEEYKYVTGCDPKNIPWSYHNAGNWPVLMWMLAAACVKTNHRELMQRALTIAQERLKNDEWPEYYDGKQGRLIGRQSRKYQTWTIVGFLLAKEILAQPGSLSLISFDPFITKQVSQACELKFDYFDS
notes: synthetic gene in pET28b(+), expressed in E. coli; crude cell-free extract (purification unsuccessful)

Experiments:
[1] = target: T1, RintHH_11820 (NatB), SBP of N-I transporter; assay: intrinsic Trp fluorescence quenching; format: binding; conditions: excitation 280 nm, emission ~340 nm; ligand ~116 µM
[2] = target: T2, RintHH_12770 (NatF), SBP of N-II transporter; assay: intrinsic Trp fluorescence quenching; format: binding; conditions: excitation 280 nm, emission ~340 nm; ligand ~7 µM
[3] = target: T3, RintHH_17430 (GlsR), periplasmic SBP; assay: intrinsic Trp fluorescence quenching; format: binding; conditions: 0.02 mM protein, excitation 280 nm, emission ~340 nm
[4] = substrate: OC[C@H]1O[C@@](CO)(O[C@H]2O[C@H](CO)[C@@H](O)[C@H](O)[C@H]2O)[C@@H](O)[C@@H]1O; assay: glucose production by HPLC (Dionex), E. coli cell-free extract; format: biochemical, Richelia intracellularis; conditions: pH 7, 30 °C, 120 mM potassium phosphate, crude extract

Molecule | % quenching [1] | also measured
NCC(=O)O [Gly] | substantial quenching was produced by the neutral amino acids (L-Pro, L-Ala, L-Phe, Gly, and L-Leu) | –
C[C@H](N)C(=O)O [L-Ala] | substantial quenching was produced by the neutral amino acids (L-Pro, L-Ala, L-Phe, Gly, and L-Leu) | –
N[C@@H](CCC(=O)O)C(=O)O [L-Glu] | – | % quenching [2]: substantial quenching was only seen with L-Glu
CC(C)C[C@H](N)C(=O)O [L-Leu] | substantial quenching was produced by the neutral amino acids (L-Pro, L-Ala, L-Phe, Gly, and L-Leu) | –
O=C(O)[C@@H]1CCCN1 [L-Pro] | substantial quenching was produced by the neutral amino acids (L-Pro, L-Ala, L-Phe, Gly, and L-Leu) | –
OC[C@H]1O[C@@](CO)(O[C@H]2O[C@H](CO)[C@@H](O)[C@H](O)[C@H]2O)[C@@H](O)[C@@H]1O [sucrose] | – | % quenching at 1 μM [3]: ~ 22.5%
B1 | – | Km [4]: 25.7 mM
